Each structure is given as a SMILES string.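 Test compounds were applied to cells in 96-well plates for 48 hours at 5 doses. At the TGI there is no net growth.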 Where only a bound is given, the exact number is not on record here.

Among the test systems are M19-MEL melanoma; RXF-631 renal; XF 498 CNS; HOP-18 NSCLC.
Common to all, as to test: inhibition of tumour cell growth, NCI panel, 48 h

As for `COc1ccc(NC(=S)NNC(=O)c2nsc3ccccc23)cc1`, the TGI with M19-MEL melanoma is more than 100 µM.

Consider `CCC1C(C#N)=C(O)NC(O)=C1C#N`, for which the TGI in the experiment on RXF-631 renal, in the experiment on XF 498 CNS, in the experiment with M19-MEL melanoma and in the experiment with HOP-18 NSCLC was more than 100 µM each time.

Take `NC1C=NNC1=O` (stereo unspecified): in the experiment on XF 498 CNS, the TGI was more than 100 µM.
